# Measurements reported in patent publication US20090186864A1, “RUTHENIUM (II) COMPOUNDS” (priority 2006, published 2009).
# What was measured:
# A2780 cancer cell line = test: Inhibitory growth activity against A2780 cancer cell line (sulforhodamine B assay, Example 11); type: cell-based, human; conditions: 24 hours exposure, 96 hours recovery, 0.5% DMSO
# Description: (§1) Other compounds were tested for inhibitory growth activity against the A2780 and A549 cancer cell lines as follows. Each drug was tested for activity at six different concentrations (100 μM, 50 μM, 10 μM, 5 μM, 1 μM and 0.1 μM) and each concentration was tested in triplicate, relative to a cisplatin control.
# (§2) The A2780 cancer cell line was maintained by growing the cells in RPMI media supplemented with 5% fetal bovine serum, 1% penicillin/streptomycin and 2 mM L-glutamine. The cells were split when approximately 70-80% confluence were reached using 0.25% trypsin/EDTA. The cells were kept incubated at 37° C., 5% CO2, high humidity. The A549 cancer cell line was maintained by growing the cells in DMEM media supplemented with 10% fetal bovine serum, 1% penicillin/streptomycin and 2 mM L-glutamine. The cells were split when approximately 70-80% confluence were reached using 0.25% trypsin/EDTA. The cells were kept incubated at 37° C., 5% CO2, high humidity.
# (§3) A2780 cancer cells were plated out at 5000 cells/well (±10%) on day one. A549 cancer cells were plated out at 2000 cells/well (±10%) on day two. On day three the test compound was dissolved in DMSO to give a stock solution of 20 mM and serial dilutions were carried out in DMSO to give concentrations of drug in DMSO of 10 mM, 2 mM, 1 mM, 0.2 mM and 0.02 mM. These were added to the wells to give the six testing concentrations and a final concentration of DMSO as 0.5% (v/v) with a total volume of drugs and media to be 200 μl. The cells were exposed to the drug for 24 hours then, after drug removal, fresh media was given and the cells were incubated for 96 hours recovery time. The remaining biomass was estimated by the sulforhodamine B assay. The cells were then fixed using 50 μl 50% (w/v) TCA and incubated at 4° C. for one hour. The biomass was stained with 100 μl 0.4% (w/v) sulforhodamine B in 1% acetic acid.
# (§4) The dye was solubilised with Tris Buffer and the absorbance was read using a BMG Fluostar microplate reader at 595 nm. A baseline correction at 690 nm was subtracted from the values. The absorbance for 100% cell survival was based on the average absorbance for the 0.1 μM dosed triplicate for that drug. IC50 values were calculated using XL-Fit version 4.0.
# A549 cancer cell line = test: Inhibitory growth activity against A549 cancer cell line (sulforhodamine B assay, Example 11); type: cell-based; conditions: 24 hours exposure, 96 hours recovery, 0.5% DMSO
# Description: as §1, §2, §3, §4
# [1] = system: A2780 ovarian cancer cell line; test: Cytotoxicity against A2780 ovarian cancer cell line (Coulter counter cell count, Example 10); type: cell-based, human; conditions: 24 hours exposure, further 72 h growth, stock solutions in deionised water
# Description: Some compounds were tested for cytotoxicity against the A2780 ovarian cancer cell line as follows.
# (§5) The human ovarian cells were added at a density of 1×10^4 cells per well to 24-well tissue culture trays (Falcon Plastic, Becton Dickenson, Lincon Park, N.J., USA) and allowed to grow for 72 hours before addition of the Ru(II) arene complexes. Stock solutions of the ruthenium compounds were made up fresh in deionised water and sonicated to ensure complete dissolution. These stock solutions were diluted with media to give final concentrations ranging between 0.1 and 100 μM. All compounds were evaluated at each concentration in duplicate wells, and complete assays were repeated a minimum of three times. Cisplatin or carboplatin was employed as a positive and comparative control in each experiment. After 24 hours exposure the drug-containing medium was removed, the cells washed with phosphate buffered saline (PBS) and fresh medium was added. Cell number was assessed after a further 72 h growth using s Coulter counter (Coulter Electronics Ltd, Luton, UK) and the IC50 values (concentration of drug causing 50% growth inhibition) calculated by linear regression analysis comparing the inhibitory effects of the drugs against the growth of untreated cells.
# [2] = system: cisplatin resistant cell line (A2780^cis); test: Cytotoxicity against cisplatin resistant cell line A2780cis (Example 10); type: cell-based, human
# Description: as §5
substance,measurement,setting,value
[(η^6-p-terp)RuCl(bipy(OH)O—)] [Compound 9],IC50,A2780 cancer cell line,21 µM
same,IC50,A549 cancer cell line,62 µM
[(η^6-bz)RuCl(bipy(OH)O^−)] [Compound 7],IC50,A2780 cancer cell line,65 µM
"[(η-indan)Ru(2,9-Me2-phen-N,N)Cl]PF6 [Compound 3]",IC50,[1],> 50 µM
"[(η^6-indan)RuCl(bipydiol-N,N)Cl] [Compound 1]",IC50,A2780 cancer cell line,17.6 µM
same,IC50,[1],3 µM
same,IC50,[2]; A2780cis cisplatin resistant cell line,2.1 µM
same,fold resistance,[2]; A2780cis versus A2780,0.7 fold
same,IC50,A549 cancer cell line,39 µM
"[(η^6-THA)Ru(bipydiol-N,N—H)Cl] [Compound 4]",IC50,A2780 cancer cell line,7.9 µM
same,IC50,A549 cancer cell line,21 µM
"[(η^6-indan)Ru(phenanthroline-N,N)Cl]PF6 [Compound 2]",IC50,[1],52 µM
[(η^6-biph)RuCl(bipy(OH)O^−)] [Compound 8],IC50,A2780 cancer cell line,40 µM
"[(η^6-DHA)Ru(bipydiol-N,N—H)Cl] [Compound 5]",IC50,A2780 cancer cell line,16.7 µM
same,IC50,A549 cancer cell line,38.4 µM
"[(η^6-THN)Ru(bipydiol-N,N—H)Cl] [Compound 6]",IC50,A2780 cancer cell line,7.3 µM
same,IC50,A549 cancer cell line,23.6 µM
